A word on the IC50: it is the concentration that gives 50% inhibition. A low value points to greater potency in that assay.

These results are taken from US11351221B2, “SMAC mimetic” (Medivir AB, priority 2009, dated 2022).

One data set has as its target T1, cIAP-1 (Homo sapiens, UniProt Q13490).
T1 construct: expressed in transfected cells; host or cells: A375 (A375Gc1)
As to the kind of experiment: cIAP degradation assay (GFP-cIAP-1). Type of data set: cell-based. The method, then:
Briefly, A375 cell lines expressing GFP-tagged cIAP-1 and cIAP-2 were generated by transfecting HA2xEGFP-pcDNA3 vector containing either cIAP-1 (A375Gc1) or cIAP-2 (A375Gc2) coding region. 2×10^4 of A375Gc1 or A375Gc2 cells were grown in 96-well plate and treated with various concentrations of test compounds for 2 h. After incubation, cells were collected by trypsinization and suspended in 150 μl of DMEM-10% FBS. A total of 10^4 cells were analyzed using a FACScan (Becton Dickinson). GFP fluorescence was monitored by using an excitation filter at 488 nm and emission was measured with a 530 nm filter.

A further data set deals with T2, XIAP (Homo sapiens, UniProt P98170).
T2 construct: endogenous in cells; host or cells: MDA-MB-231 (ATCC), soluble hypotonic lysate
T2 sequence (P98170 whole entry): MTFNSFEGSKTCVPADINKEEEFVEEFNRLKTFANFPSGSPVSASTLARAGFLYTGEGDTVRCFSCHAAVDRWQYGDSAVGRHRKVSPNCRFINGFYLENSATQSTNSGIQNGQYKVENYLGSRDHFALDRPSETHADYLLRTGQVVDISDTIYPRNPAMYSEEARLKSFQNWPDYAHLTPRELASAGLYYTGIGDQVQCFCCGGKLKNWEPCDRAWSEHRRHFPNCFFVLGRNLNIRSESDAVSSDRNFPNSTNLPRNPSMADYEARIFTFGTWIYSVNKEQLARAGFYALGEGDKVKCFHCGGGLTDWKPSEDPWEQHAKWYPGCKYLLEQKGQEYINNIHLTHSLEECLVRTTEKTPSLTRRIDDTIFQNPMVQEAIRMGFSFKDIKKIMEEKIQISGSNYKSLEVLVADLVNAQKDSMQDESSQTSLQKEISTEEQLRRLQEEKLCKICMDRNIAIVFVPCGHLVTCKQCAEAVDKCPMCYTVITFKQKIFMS
Nature of the data set: Caspase-3 derepression assay. The note with it: MDA-MB-231 hypotonic lysate activated with cytochrome c and dATP; zDEVD-R110(2) substrate. It counts as biochemical. The method, then: Cell pellet was washed one time by resuspending in 5 mL hypotonic lysis buffer (20 mM HEPES, pH7.5, 10 mM KCl, 1.5 mM MgCl2, 1.0 mM EDTA, 1.0 mM DTT) and recollected by centrifugation. Pellet was next resuspended in 1 volume of hypotonic lysis buffer supplemented with a complete protease inhibitor tablet (Roche) and allowed to swell on ice for 30 minutes. Cells were disrupted by approximately 50 passages through a 27 gauge needle. Lysis was monitored by light microscopy. Lysate was centrifuged at 12000×g for 10 minutes at 4° C. to remove membrane fraction, unlysed cells and debris. The soluble fraction was collected for protein concentration determination and subsequent assay analysis.
The hypotonic lysate (25 μg protein), 50 μg/mL cytochrome c and 10 mM dATP were combined in a microcentrifuge tube to a final volume of 9 μl in hypotonic lysis buffer followed by addition of test compound and incubated for 30 minutes at room temp. Following incubation 50 μl of hypotonic lysis buffer containing 5 μM of pro-fluorescent rhodamine-110(2) based caspase-3 substrate zDEVD-R110(2) was added and fluorescence intensity was monitored over time. Activation of the lysate by addition of cytochrome c and dATP results in apoptosome formation and subsequent activation of caspases-9 and -3.

Data set [1] is classed as in vivo. The note with it: rat. The source says:
Body weight loss (BWL), mortality and additional toxicity data were generated substantially as follows. […] Body weights were taken on day 4 and are shown as percent change from day 1.

The structures appear in SMILES notation.

T1 sequence (Q13490 whole entry, species assumed): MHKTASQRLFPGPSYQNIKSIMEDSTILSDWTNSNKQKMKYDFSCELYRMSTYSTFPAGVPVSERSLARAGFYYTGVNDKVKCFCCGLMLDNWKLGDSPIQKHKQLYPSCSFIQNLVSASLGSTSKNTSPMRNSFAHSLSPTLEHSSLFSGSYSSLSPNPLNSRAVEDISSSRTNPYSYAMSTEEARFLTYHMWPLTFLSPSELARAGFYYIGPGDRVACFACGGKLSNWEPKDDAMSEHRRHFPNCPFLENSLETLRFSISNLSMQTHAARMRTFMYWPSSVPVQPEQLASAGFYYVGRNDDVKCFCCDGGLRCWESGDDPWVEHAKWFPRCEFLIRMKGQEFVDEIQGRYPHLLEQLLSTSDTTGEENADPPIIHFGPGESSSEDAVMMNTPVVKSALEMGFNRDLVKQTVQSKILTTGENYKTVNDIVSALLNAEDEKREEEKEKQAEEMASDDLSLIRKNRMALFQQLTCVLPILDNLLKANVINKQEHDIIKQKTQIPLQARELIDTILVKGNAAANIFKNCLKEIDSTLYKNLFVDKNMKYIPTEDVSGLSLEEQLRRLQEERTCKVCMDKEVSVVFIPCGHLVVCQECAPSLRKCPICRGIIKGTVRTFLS

As to `CN[C@@H](C)C(=O)N[C@H](C(=O)N1C[C@@H](O)C[C@H]1Cc1c(-c2[nH]c3cc(F)ccc3c2C[C@@H]2C[C@H](O)CN2C(=O)[C@@H](NC(=O)[C@H](C)NC)[C@@H](C)OC)[nH]c2cc(F)ccc12)[C@@H](C)OC` [Compound 5], the DC50 on cIAP-1 (A375Gc1 cells, 2 h treatment, 50% of GFP signal inhibited (FACS), read-out: GFP-cIAP-1 IC50) turned out to be 10 nM. Besides, the “IC50 Ratio cIAP-2/cIAP-1” value on cIAP-1 (ratio of GFP-cIAP-2 to GFP-cIAP-1 degradation IC50) was found to be 3.7. The 50% inhibitory concentration (IC50) against XIAP is 0.36 nM. Moreover, the Mortality entry in data set [1] (3 mg/Kg, QDx4 i.v. bolus) is reported as “caused the animals to die”. Moreover, the Additional clinical observations entry in data set [1] (in vivo, 1 mg/kg) was “dehydration, ungroomed appearance, chromorhinorrhea, alopecia (head), and excessive scratching”. Besides, in data set [1] (in vivo, 1 mg/kg/day), the “Bone marrow hypocellularity of the erythroid series (anatomic pathology)” value is listed as “marked to severe”; the “Hypercellularity of the myeloid series (anatomic pathology)” value is recorded as “mild to moderate”; the “Hypertrophy and hyperplasia of megakaryocytes (anatomic pathology)” value is reported as “mild to moderate”; the “Type 2 pneumocyte hypertrophy/hyperplasia in the lungs (anatomic pathology)” value is on record as “mild to moderate”. In addition, the Clinical signs result in data set [1] (in vivo, iv, 1 mg/kg/day) is “lethargy, increased/irregular respiration and increased heart rate”.
